Reference: patent US4638070A, “Heterocyclic amino-alcohol derivatives” (Continental Pharma, priority 1980, dated 1987)

Legend:
[1] = Acute toxicity, oral, LD50 (Litchfield and Wilcoxon); details: mouse, in vivo, fasted male mice, confidence limits p=95% in brackets
Method: (1) The acute toxicity was determined on fasted male mice. The tested substances were orally administered and LD50 values (lethal dose for 50% of animals) were calculated according to the method of Litchfield and Wilcoxon (J. Pharmacol. exp. Ther. 96, 94-113, 1949). These LD50 values are given in mg/kg and also, when possible, with their confidence limits for p=95%.

[2] = tested on: unanaesthetized, hypertension-suffering rat; assay: Antihypertensive activity (systolic arterial pressure), oral; format: in vivo; details: 60 mg/kg, hypertensive rat, 3 hours
Procedure, shortened: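 Conscious hypertensive rats given compound orally at 60 mg/kg; systolic arterial pressure measured every 30 min for 2 h pre-dose and 3 h post-dose. Scored O (no fall), + (<10 mm Hg), ++ (10–20 mm Hg), +++ (>20 mm Hg).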

[3] = tested on: guinea-pig ileum (acetylcholine contractions); assay: Antispasmodic activity in vitro, contractions caused by acetylcholine; details: added 15 minutes before spasm-producing agent
Method: (§1) (4) The antispasmodic activity was measured in vitro, on guinea-pig ileum, the contractions of which were caused by histammne (Hist.), acetylcholine (Achol) or barium chloride (BaCl2). The tested products were added to perfusion bath 15 minutes before the spasm-producing agents.
(§2) The dose is given in micograms (μg) per ml of bath causing complete spasm inhibition.

femoral artery = assay: Vasodilator activity, femoral artery (technique of perfused paw); format: in vivo; design: key: O: no action; +: slight activity; ++: effect equal to half the effect of papaverine; +++: effect equal to that of papaverine; ++++: effect higher than that of papaverine; details: intra-arterial, 30 mg/kg, anaesthetized dog, vs papaverine at same dose
Method: (3) The vasodilator activity was measured at the level of femoral artery on anaesthetized dog (technique of perfused paw). The tested substances were given intra-arterially at the rate of 30 mg/kg. Results are expressed with respect to papaverine tested at the same dose.
++: effect equal to half the effect of papaverine.
+++: effect equal to that of papaverine.
++++: effect higher than that of papaverine.

[4] = tested on: guinea-pig ileum (histamine contractions); assay: Antispasmodic activity in vitro, contractions caused by histamine; details: added 15 minutes before spasm-producing agent
Method: as §1, §2

[5] = tested on: guinea-pig ileum (barium chloride contractions); assay: Antispasmodic activity in vitro, contractions caused by barium chloride; details: added 15 minutes before spasm-producing agent
Method: as §1, §2

Row | Compound | LD50 [1] | ANTIHYPERTENSIVE ACTIVITY [2] | ANTISPASMODIC ACTIVITY ACHOL (dose causing complete spasm inhibition) [3] | VASODILATOR ACTIVITY (femoral artery) | ANTISPASMODIC ACTIVITY HIST. (dose causing complete spasm inhibition) [4] | ANTISPASMODIC ACTIVITY BaCl2 (dose causing complete spasm inhibition) [5]
1 | CCCCCCCCNC(C)C(O)c1ccc2c(c1)CCCS2 (stereo not drawn) [No 1, 1-(6-Thiochromanyl)-2-n-octylamino-1-propanol] | > 4000 mg/kg | ++ (reduction of 10 to 20 mm Hg) | 3.3 μg per ml | ++++ | 3.3 μg per ml | 1.7 μg per ml
2 | CC(NCCCCc1ccccc1)C(O)c1ccc2c(c1)CCCS2 (stereo not drawn) [No 2] | > 4000 mg/kg | +++ (reduction higher than 20 mm Hg) | 8.3 μg per ml | ++++ | 1.7 μg per ml | 16.7 μg per ml
3 | Cc1ccccc1N1CCN(C(C)C(O)c2ccc3c(c2)CCCS3)CC1 (stereo not drawn) [No 15] |  | +++ (reduction higher than 20 mm Hg) | 3.3 μg per ml | +++ | 0.8 μg per ml | > 16.7 μg per ml
4 | CC(NCCC(c1ccccc1)c1ccccc1)C(O)c1ccc2c(c1)CCCS2 (stereo not drawn) [No 16] | > 4000 mg/kg | ++ (reduction of 10 to 20 mm Hg) | 0.8 μg per ml | +++ | 0.3 μg per ml | 0.33 μg per ml
5 | CCCCCCCCNC(C)C(O)c1ccc2c(c1)CCC(C)S2 (stereo not drawn) [No 4] | 4000 mg/kg |  |  | +++ |  | > 16.7 μg per ml
6 | CCCCCCCCNC(C)C(O)c1ccc2c(c1)CCS2 (stereo not drawn) [No 3, 1-(2,3-dihydro-5-benzo[b]thienyl)-2-n-octylamino-1-propanol] | 4450 mg/kg | +++ (reduction higher than 20 mm Hg) | 16.7 μg per ml | +++ | 8.3 μg per ml | 8.3 μg per ml
7 | CC(NCCCCc1ccc(Cl)cc1)C(O)c1ccc2c(c1)CCCS2 (stereo not drawn) [No 23] | ~2100 mg/kg | +++ (reduction higher than 20 mm Hg) | 1.7 μg per ml | ++++ | 0.8 μg per ml | 0.8 μg per ml
8 | Cc1ccccc1N1CCN(C(C)C(O)c2ccc3c(c2)CCC(C)S3)CC1 (stereo not drawn) [No 10] | > 4000 mg/kg | +++ (reduction higher than 20 mm Hg) | 16.7 μg per ml | ++ | 0.33 μg per ml | 8.3 μg per ml
9 | CC1Cc2cc(C(O)C(C)NCCCCc3ccccc3)ccc2S1 (stereo not drawn) [No 19] | 1550 mg/kg | +++ (reduction higher than 20 mm Hg) | 1.7 μg per ml | +++ | 0.8 μg per ml | 0.8 μg per ml
10 | COc1ccc(CCNC(C)C(O)c2ccc3c(c2)CCCS3)cc1OC (stereo not drawn) [No 22] | 3700 mg/kg |  | 8.3 μg per ml |  | 3.3 μg per ml | 8.3 μg per ml
11 | CC1CCc2cc(C(O)C(C)NCCc3ccccc3)ccc2S1 (stereo not drawn) [No 9] | ~2750 mg/kg |  | 3.3 μg per ml | +++ | 3.3 μg per ml | 0.8 μg per ml
12 | CC(NCCCCOc1ccccc1)C(O)c1ccc2c(c1)CCCS2 (stereo not drawn) [No 24] | > 4000 mg/kg |  | 1.7 μg per ml | +++ | 0.33 μg per ml | 1.7 μg per ml
13 | CC(NCCOc1ccccc1)C(O)c1ccc2c(c1)CCCS2 (stereo not drawn) [No 20] | > 4000 mg/kg | +++ (reduction higher than 20 mm Hg) | 3.3 μg per ml | +++ | 8.3 μg per ml | 8.3 μg per ml
14 | CC(NCCCc1ccccc1)C(O)c1ccc2c(c1)CCCS2 (stereo not drawn) [No 17] | > 4000 mg/kg | +++ (reduction higher than 20 mm Hg) | 1.7 μg per ml | +++ | 0.8 μg per ml | 1.7 μg per ml
15 | CC(NCCCCSc1ccccc1)C(O)c1ccc2c(c1)CCCS2 (stereo not drawn) [No 25] | > 4000 mg/kg |  | 0.8 μg per ml |  | 0.8 μg per ml | 0.8 μg per ml
16 | CC(C(O)c1ccc2c(c1)CCCS2)N1CCC(Cc2ccccc2)CC1 (stereo not drawn) [No 26] |  | +++ (reduction higher than 20 mm Hg) | 1.7 μg per ml |  | 0.017 μg per ml | 0.8 μg per ml
17 | 1-(5-indanyl)-2-(4-phenylbutylamino)-1-propanol [No 163] |  | +++ (reduction higher than 20 mm Hg) | 0.8 μg per ml | ++++ | 0.33 μg per ml | 0.8 μg per ml
18 | CCCCCCCCNC(C)C(O)c1ccc2c(c1)CCCCS2 (stereo not drawn) [No 11] | 3300 mg/kg |  | 1.7 μg per ml | +++ | 0.8 μg per ml | 3.3 μg per ml
19 | CC(NC1CCCCCCC1)C(O)c1ccc2c(c1)CCS2 (stereo not drawn) [No 28] | 580 mg/kg |  | 1.7 μg per ml | + | 0.8 μg per ml | 1.7 μg per ml
